Measurements published in ChEMBL document CHEMBL5532681, “Cannabidiol Inhibits Epithelial Ovarian Cancer: Role of Gut Microbiome” (J Nat Prod, 2024).
Active and inactive are the calls of the source. No cut-off for these calls is given here.

Experiments:
A2780 [1] = experiment: Inhibition of cell migration in human A2780 cells assessed as decrease in migration distance at 3 uM incubated for 24 hrs by wound healing assay relative to control; assay type: functional; set-up: scale not given: the % may be the effect or the level left
A2780 [2] = experiment: Antitumor activity against human A2780 cells xenografted in BALB/c female nude mouse assessed as decrease in tumor volume at 10 to 20 mg/kg, ip administered on day 24 and measured every other day for 45 days; assay type: functional, organism-based; conditions: dose 10-20 mg/kg, time 45.0 day
ES-2 [3] = experiment: Antiproliferative activity against human ES2 cells assessed as decrease in cell viability at 3 to 12 uM incubated for 24 hrs by crystal violet staining based assay; assay type: functional; conditions: dose 3-12 µM
ES-2 [4] = experiment: Inhibition of cell invasion in human ES2 cells assessed as decrease in invasion rate 3 uM incubated for 48 hrs by transwell assay; assay type: functional; set-up: scale not given: the % may be the effect or the level left
A2780 [5] = experiment: Antiproliferative activity against human A2780 cells assessed as decrease in cell viability at 12 uM incubated for 24 hrs by crystal violet staining based assay relative to control; assay type: functional
ES-2 [6] = experiment: Inhibition of cell invasion in human ES2 cells assessed as decrease in invasion rate at 12 uM incubated for 48 hrs by transwell assay; assay type: functional; set-up: scale not given: the % may be the effect or the level left
A2780 [7] = experiment: Downregulation of MMP-9 expression in human A2780 cells by Westernblot analysis; assay type: functional, cell-based
ES-2 [8] = experiment: Antiproliferative activity against human ES2 cells assessed as decrease in cell viability at 3 to 12 uM by CCK-8 assay; assay type: functional, cell-based; conditions: dose 3-12 µM, TDE = time-dependent effect
A2780 [9] = experiment: Anticancer activity against human A2780 cells xenografted in BALB/c female nude mouse assessed as decrease in abundance of firmicutes at 10 to 20 mg/kg, ip administrated for 28 days; assay type: functional, organism-based; conditions: dose 10-20 mg/kg, time 28.0 day
A2780 [10] = experiment: Antitumor activity against human A2780 cells xenografted in BALB/c female nude mouse assessed as decrease in body weight at 10 to 20 mg/kg, ip administered on day 24 and measured every other day for 45 days; assay type: functional, organism-based; conditions: dose 10-20 mg/kg, time 45.0 day
[11] = Toxicity in human A2780 cells xenografted in BALB/c female nude mouse assessed as effect on spleen index at 10 to 20 mg/kg, ip administered on day 24 and measured every other day for 45 days; assay type: organism-based; conditions: in vivo, 1080 h, dose 10-20 mg/kg, time 45 day
A2780 [12] = experiment: Antitumor activity against human A2780 cells xenografted in BALB/c female nude mouse assessed as decrease in tumor growth rate at 10 to 20 mg/kg, ip administered on day 24 and measured every other day for 45 days; assay type: functional, organism-based; conditions: dose 10-20 mg/kg, time 45.0 day
[13] = Downregulation of MMP-9 expression in human A2780 cells at 12 uM by Westernblot analysis relative to control; assay type: functional
A2780 [14] = experiment: Antiproliferative activity against human A2780 cells assessed as decrease in cell viability at 3 to 12 uM incubated for 24 hrs by crystal violet staining based assay; assay type: functional; conditions: dose 3-12 µM
ES-2 [15] = experiment: Inhibition of cell invasion in human ES2 cells assessed as decrease in invasion rate at 6 uM incubated for 48 hrs by transwell assay; assay type: functional; set-up: scale not given: the % may be the effect or the level left
A2780 [16] = experiment: Antitumor activity against human A2780 cells xenografted in BALB/c female nude mouse assessed as decrease in AKT positive cells at 10 to 20 mg/kg, ip administrated for 28 days by immunohistochemical analysis; assay type: functional, organism-based; conditions: dose 10-20 mg/kg, time 28.0 day
A2780 [17] = experiment: Inhibition of cell migration in human A2780 cells assessed as decrease in migration distance at 6 uM incubated for 24 hrs by wound healing assay relative to control; assay type: functional; set-up: scale not given: the % may be the effect or the level left
ES-2 [18] = experiment: Downregulation of AKT expression in human ES2 cells by Westernblot analysis; assay type: functional, cell-based
A2780 [19] = experiment: Downregulation of MMP-2 expression in human A2780 cells by Westernblot analysis; assay type: functional, cell-based
[20] = Downregulation of EGFR expression in human ES2 cells at 12 uM by Westernblot analysis relative to control; assay type: functional, ES-2
A2780 [21] = experiment: Antiproliferative activity against human A2780 cells assessed as decrease in cell viability incubated for 24 to 72 hrs by CCK-8 assay; assay type: functional, cell-based; conditions: time 24-72 hrs
A2780 [22] = experiment: Antitumor activity against human A2780 cells xenografted in BALB/c female nude mouse assessed as reduction in cells with hyaline cytoplasm at 10 to 20 mg/kg, ip administrated for 28 days by HE staining based analysis; assay type: functional, organism-based; conditions: dose 10-20 mg/kg, time 28.0 day
ES-2 [23] = experiment: Antiproliferative activity against human ES2 cells assessed as decrease in cell viability at 12 uM incubated for 24 hrs by crystal violet staining based assay relative to control; assay type: functional
A2780 [24] = experiment: Antitumor activity against human A2780 cells xenografted in BALB/c female nude mouse assessed as irregular tumor shape at 10 to 20 mg/kg, ip administrated for 28 days by HE staining based analysis; assay type: functional, organism-based; conditions: dose 10-20 mg/kg, time 28.0 day
[25] = Downregulation of MMP-2 expression in human ES2 cells at 12 uM by Westernblot analysis relative to control; assay type: functional, ES-2
ES-2 [26] = experiment: Downregulation of MMP-9 expression in human ES2 cells by Westernblot analysis; assay type: functional, cell-based
A2780 [27] = experiment: Inhibition of cell invasion in human A2780 cells assessed as decrease in invasion rate at 3 uM incubated for 48 hrs by transwell assay; assay type: functional; set-up: scale not given: the % may be the effect or the level left
ES-2 [28] = experiment: Downregulation of EGFR expression in human ES2 cells by Westernblot analysis; assay type: functional, cell-based
[29] = Downregulation of EGFR expression in human A2780 cells at 12 uM by Westernblot analysis relative to control; assay type: functional
ES-2 [30] = experiment: Inhibition of cell migration in human ES2 cells assessed as decrease in migration distance at 3 uM incubated for 24 hrs by wound healing assay relative to control; assay type: functional; set-up: scale not given: the % may be the effect or the level left
A2780 [31] = experiment: Inhibition of cell invasion in human A2780 cells assessed as decrease in invasion rate at 6 uM incubated for 48 hrs by transwell assay; assay type: functional; set-up: scale not given: the % may be the effect or the level left
ES-2 [32] = experiment: Inhibition of cell migration in human ES2 cells assessed as decrease in migration distance at 6 uM incubated for 24 hrs by wound healing assay relative to control; assay type: functional; set-up: scale not given: the % may be the effect or the level left
ES-2 [33] = experiment: Inhibition of cell migration in human ES2 cells assessed as decrease in migration distance at 12 uM incubated for 24 hrs by wound healing assay relative to control; assay type: functional; set-up: scale not given: the % may be the effect or the level left
ES-2 [34] = experiment: Downregulation of MMP-2 expression in human ES2 cells by Westernblot analysis; assay type: functional, cell-based
A2780 [35] = experiment: Antiproliferative activity against human A2780 cells assessed as decrease in cell viability at 3 to 12 uM by CCK-8 assay; assay type: functional, cell-based; conditions: dose 3-12 µM, TDE = time-dependent effect
ES-2 [36] = experiment: Antiproliferative activity against human ES2 cells assessed as decrease in cell viability incubated for 24 to 72 hrs by CCK-8 assay; assay type: functional, cell-based; conditions: time 24-72 hrs
A2780 [37] = experiment: Downregulation of AKT expression in human A2780 cells by Westernblot analysis; assay type: functional, cell-based
[38] = Downregulation of MMP-9 expression in human ES2 cells at 12 uM by Westernblot analysis relative to control; assay type: functional, ES-2
[39] = Toxicity in human A2780 cells xenografted in BALB/c female nude mouse assessed as effect on body weight at 10 to 20 mg/kg, ip administered on day 24 and measured every other day for 45 days; assay type: organism-based; conditions: in vivo, 1080 h, dose 10-20 mg/kg, time 45 day
A2780 [40] = experiment: Anticancer activity against human A2780 cells xenografted in BALB/c female nude mouse assessed as increase in abundance of alistipes at 10 to 20 mg/kg, ip administrated for 28 days; assay type: functional, organism-based; conditions: dose 10-20 mg/kg, time 28.0 day
A2780 [41] = experiment: Antitumor activity against human A2780 cells xenografted in BALB/c female nude mouse assessed as disordered tumor cells at 10 to 20 mg/kg, ip administrated for 28 days by HE staining based analysis; assay type: functional, organism-based; conditions: dose 10-20 mg/kg, time 28.0 day
[42] = Downregulation of MMP-2 expression in human A2780 cells at 12 uM by Westernblot analysis relative to control; assay type: functional
A2780 [43] = experiment: Anticancer activity against human A2780 cells xenografted in BALB/c female nude mouse assessed as increase in intestinal microbial diversity at 10 to 20 mg/kg, ip administrated for 28 days; assay type: functional, organism-based; conditions: dose 10-20 mg/kg, time 28.0 day
A2780 [44] = experiment: Downregulation of EGFR expression in human A2780 cells by Westernblot analysis; assay type: functional, cell-based
A2780 [45] = experiment: Antitumor activity against human A2780 cells xenografted in BALB/c female nude mouse assessed as reduction in EGFR positive cells at 20 mg/kg, ip administrated for 28 days by immunohistochemical analysis; assay type: functional, organism-based; conditions: time 28.0 day
A2780 [46] = experiment: Inhibition of cell invasion in human A2780 cells assessed as decrease in invasion rate at 12 uM incubated for 48 hrs by transwell assay; assay type: functional; set-up: scale not given: the % may be the effect or the level left
A2780 [47] = experiment: Antitumor activity against human A2780 cells xenografted in BALB/c female nude mouse assessed as decrease in tumor weight at 10 to 20 mg/kg, ip administered on day 24 and measured every other day for 45 days; assay type: functional, organism-based; conditions: dose 10-20 mg/kg, time 45.0 day
A2780 [48] = experiment: Inhibition of cell migration in human A2780 cells assessed as decrease in migration distance at 12 uM incubated for 24 hrs by wound healing assay relative to control; assay type: functional; set-up: scale not given: the % may be the effect or the level left

SMILES: C=C(C)[C@@H]1CCC(C)=C[C@H]1c1c(O)cc(CCCCC)cc1O [CANNABIDIOL]
- Activity (A2780 [1]): 75%
- Activity (A2780 [2]): Active
- Activity (ES-2 [3]): Dose-Dependent Effect
- Activity (ES-2 [4]): 80%
- Activity (A2780 [5]): 27%
- Activity (ES-2 [6]): 32%
- Activity (A2780 [7]): Dose-Dependent Effect
- Activity (ES-2 [8]): Tde
- Activity (A2780 [9]): Active
- Activity (A2780 [10]): Active
- Activity [11]: Non-Toxic
- Activity (A2780 [12]): Active
- Activity [13]: 77%
- Activity (A2780 [14]): Dose-Dependent Effect
- Activity (ES-2 [15]): 39%
- Activity (A2780 [16]): Active
- Activity (A2780 [17]): 62%
- Activity (ES-2 [18]): Dose-Dependent Effect
- Activity (A2780 [19]): Dose-Dependent Effect
- Activity [20]: 79%
- Activity (A2780 [21]): Dose-Dependent Effect
- Activity (A2780 [22]): Active
- Activity (ES-2 [23]): 24%
- Activity (A2780 [24]): Active
- Activity [25]: 77%
- Activity (ES-2 [26]): Dose-Dependent Effect
- Activity (A2780 [27]): 71%
- Activity (ES-2 [28]): Dose-Dependent Effect
- Activity [29]: 58%
- Activity (ES-2 [30]): 73%
- Activity (A2780 [31]): 56%
- Activity (ES-2 [32]): 53%
- Activity (ES-2 [33]): 26%
- Activity (ES-2 [34]): Dose-Dependent Effect
- Activity (A2780 [35]): Tde
- Activity (ES-2 [36]): Dose-Dependent Effect
- Activity (A2780 [37]): Dose-Dependent Effect
- Activity [38]: 81%
- Activity [39]: Non-Toxic
- Activity (A2780 [40]): Active
- Activity (A2780 [41]): Active
- Activity [42]: 77%
- Activity (A2780 [43]): Active
- Activity (A2780 [44]): Dose-Dependent Effect
- Activity (A2780 [45]): Active
- Activity (A2780 [46]): 61%
- Activity (A2780 [47]): Active
- Activity (A2780 [48]): 52%
